{
  "source": "patent US4130709A",
  "about": "“Pleuromutilin glycoside derivatives” (Eli Lilly and Company, priority 1977, dated 1978)",
  "key": {"[1]": {"assay": "toxicity (LD50) on intraperitoneal injection in mice", "settings": "mouse, in vivo, ip; intraperitoneal injection, mice"}, "Pasteurella hemolytica": {"tested_on": "Pasteurella hemolytica", "assay": "in vitro tests against Pasteurella hemolytica", "type": "cell-based"}, "Spiroplasma citri": {"tested_on": "Spiroplasma citri", "assay": "in vitro inhibition of Spiroplasma citri measured by a color reaction", "type": "cell-based", "procedure": "In another important aspect, the compounds of this invention are active against Spiroplasmas. Spiroplasma citri is the causative agent of citrus-stubborn disease; another Spiroplasma, corn-stunt Spiroplasma, affects the growth of corn. Table VII summarizes the in vitro activity of representative compounds of the present invention (R^2 =H in this group) against Spiroplasma citri. In this test, inhibition of S. citri is measured by a color reaction. Red (R) includes complete inhibition; red-orange (RO) indicates partial inhibition; and yellow (Y) indicates no inhibition."}, "Treponema hyodysenteriae": {"tested_on": "Treponema hyodysenteriae", "assay": "in vitro agar plate test against Treponema hyodysenteriae", "settings": "four days anaerobic"}, "[2]": {"tested_on": "Staphylococcus aureus (H-Heatley) NRRL B-314", "assay": "in vitro turbidometric assay (Autoturb Microbiological Assay System) against Staphylococcus aureus", "type": "cell-based", "settings": "nutrient broth pH 7, approximately 4 hours at 37° C., A-40104 factor A as standard", "procedure": "The compounds are conveniently tested against a typical gram-positive organism, Staphylococcus aureus, using a turbidometric assay on a semi-automated system (Autoturb Microbiological Assay System, Elanco) described by N. R. Kuzel and F. W. Kavanagh in J. Pharmaceut. Sci, 60 (5), 764 and 767 (1971). In testing these compounds, the following parameters were used: Staphylococcus aureus (H-Heatley) NRRL B-314 in a nutrient broth medium (pH 7), incubated for approximately 4 hours at 37° C. Test samples and A-40104 factor A, which is used as a standard, were dissolved in water. The standard was presented to the Autoturb carrousel at concentrations of 1.25, 2.50, 3.75, 5.00 and 6.25 mcg/ml. Test compounds were diluted to contain approximately 2.5 to 5.0 mcg of activity per ml, as presented to the carrousel. The units of activity of some of the typical compounds of this invention (R^2 =H in group tested) in this in vitro assay are summarized in Table I"}, "Actinomyces israelii": {"tested_on": "Actinomyces israelii", "assay": "standard agar-dilution test, anaerobic bacteria", "type": "cell-based", "settings": "24-hour incubation"}, "Clostridium perfringens": {"tested_on": "Clostridium perfringens", "assay": "microbe, parasite or virus in culture", "type": "cell-based", "settings": "24 h"}, "[3]": {"tested_on": "Bacteroides thetaiotaomicron", "assay": "standard agar-dilution test, anaerobic bacteria", "type": "cell-based", "settings": "24-hour incubation", "procedure": "(§1) Table IV summarizes the activity of typical compounds of this invention, as determined by the standard agar-dilution test.\n(§2) *Endpoint read after 24-hour incubation"}, "Clostridium septicum": {"tested_on": "Clostridium septicum", "assay": "standard agar-dilution test, anaerobic bacteria", "type": "cell-based", "settings": "24-hour incubation", "procedure": "as §1, §2"}, "Eubacterium aerofaciens": {"tested_on": "Eubacterium aerofaciens", "assay": "standard agar-dilution test, anaerobic bacteria", "type": "cell-based", "settings": "Collinsella aerofaciens; Eubacterium aerofaciens; 24-hour incubation; read-out: MIC"}, "[4]": {"tested_on": "Peptococcus asaccharolyticus", "assay": "standard agar-dilution test, anaerobic bacteria", "type": "cell-based", "settings": "Peptoniphilus asaccharolyticus, 24-hour incubation"}, "Peptococcus prevoti": {"tested_on": "Peptococcus prevoti", "assay": "standard agar-dilution test, anaerobic bacteria", "type": "cell-based", "settings": "Peptococcus prevoti; 24-hour incubation; read-out: MIC"}, "[5]": {"tested_on": "Peptostreptococcus anaerobius", "assay": "standard agar-dilution test, anaerobic bacteria", "type": "cell-based", "settings": "24-hour incubation"}, "[6]": {"tested_on": "Peptostreptococcus intermedius", "assay": "standard agar-dilution test, anaerobic bacteria", "type": "cell-based", "settings": "Peptostreptococcus intermedius; 24-hour incubation; read-out: MIC"}, "Bacteroides fragilis 111": {"tested_on": "Bacteroides fragilis 111", "assay": "standard agar-dilution test, anaerobic bacteria", "type": "cell-based", "settings": "Bacteroides fragilis 111; 24-hour incubation; read-out: MIC"}, "[7]": {"tested_on": "Bacteroides fragilis 1877", "assay": "standard agar-dilution test, anaerobic bacteria", "type": "cell-based", "settings": "Bacteroides fragilis 1877; 24-hour incubation; read-out: MIC"}, "[8]": {"tested_on": "Bacteroides fragilis 1936B", "assay": "standard agar-dilution test, anaerobic bacteria", "type": "cell-based", "settings": "Bacteroides fragilis 1936B; 24-hour incubation; read-out: MIC"}, "[9]": {"tested_on": "Bacteroides melaninogenicus 1856/28", "assay": "standard agar-dilution test, anaerobic bacteria", "type": "cell-based", "settings": "Prevotella intermedia; Bacteroides melaninogenicus 1856/28; 24-hour incubation; read-out: MIC"}, "[10]": {"tested_on": "Bacteroides melaninogenicus 2736", "assay": "standard agar-dilution test, anaerobic bacteria", "type": "cell-based", "settings": "Bacteroides melaninogenicus 2736; 24-hour incubation; read-out: MIC"}, "Bacteroides vulgatis": {"tested_on": "Bacteroides vulgatis", "assay": "standard agar-dilution test, anaerobic bacteria", "type": "cell-based", "settings": "Bacteroides vulgatis; 24-hour incubation; read-out: MIC"}, "Bacteroides corrodens": {"tested_on": "Bacteroides corrodens", "assay": "standard agar-dilution test, anaerobic bacteria", "type": "cell-based", "settings": "Eikenella corrodens; Bacteroides corrodens; 24-hour incubation; read-out: MIC"}, "Fusobacterium symbiosum": {"tested_on": "Fusobacterium symbiosum", "assay": "standard agar-dilution test, anaerobic bacteria", "type": "cell-based", "settings": "Fusobacterium symbiosum; 24-hour incubation; read-out: MIC"}, "[11]": {"tested_on": "Fusobacterium necrophorum", "assay": "standard agar-dilution test, anaerobic bacteria", "type": "cell-based", "settings": "24-hour incubation, read-out: MIC"}, "[12]": {"tested_on": "Pasteurella multocida (bovine)", "assay": "in vitro activity against Pasteurella multocida (bovine)", "type": "cell-based", "text": "(§3) The activity of representative compounds of this invention (R^2 =H in group tested) against P. multocida and the Pseudomonas sp. is summarized in Table VI."}, "[13]": {"tested_on": "Pasteurella multocida (turkey)", "assay": "in vitro activity against Pasteurella multocida (turkey)", "type": "cell-based", "text": "as §3"}, "Pseudomonas sp. (fish)": {"tested_on": "Pseudomonas sp. (fish)", "assay": "in vitro activity against Pseudomonas sp. (fish)", "type": "cell-based", "text": "P. multocida, for example, is a causative agent of respiratory infection in cattle, poultry and swine. P. hemolytica is a major cause of respiratory disease in cattle. The activity of representative compounds of this invention (R^2 =H in group tested) against P. multocida and the Pseudomonas sp. is summarized in Table VI."}},
  "data": [
    {"smiles": "CC[C@]1(C)C[C@@H](OC(=O)CS[C@@H]2OC[C@@H](O)[C@H](O)[C@H]2O)[C@]2(C)[C@H](C)CC[C@]3(CCC(=O)[C@H]32)[C@@H](C)[C@@H]1O", "values": [
      {"measurement": "LD50", "setting": "[1]", "result": "> 1500", "unit": "mg/kg"},
      {"measurement": "MIC", "setting": "Pasteurella hemolytica", "result": 10.4, "unit": "µg/mL"},
      {"measurement": "MIC", "setting": "Spiroplasma citri; Spiroplasma citri, in vitro, read-out: inhibits the growth of S. citri at levels as low as", "result": "≥ 0.01", "unit": "µg/mL"},
      {"measurement": "inhibition of growth", "setting": "Treponema hyodysenteriae; 0.5 mcg/ml agar concentration", "result": "inhibited growth"},
      {"measurement": "inhibition of growth", "setting": "Treponema hyodysenteriae; 5.0 mcg/ml agar concentration", "result": "inhibited growth"},
      {"measurement": "inhibition of growth", "setting": "Treponema hyodysenteriae; 50 mcg/ml agar concentration", "result": "inhibited growth"}
    ]},
    {"smiles": "C=C[C@]1(C)C[C@@H](OC(=O)CS[C@@H]2OC[C@@H](OC(C)=O)[C@H](OC(C)=O)[C@H]2OC(C)=O)[C@]2(C)[C@H](C)CC[C@]3(CCC(=O)[C@H]32)[C@@H](C)[C@@H]1O", "note": "[Compound 1, 14-deoxy-14-[(2,3,4-tri-O-acetyl-β-D-xylopyranosyl)thioacetoxy]mutilin]", "values": [
      {"measurement": "Units of Activity", "setting": "[2]", "result": "568 to 579", "unit": "µg/mg"},
      {"measurement": "MIC", "setting": "Actinomyces israelii", "result": "≤ 0.5", "unit": "µg/mL"},
      {"measurement": "MIC", "setting": "Clostridium perfringens", "result": 16, "unit": "µg/mL"},
      {"measurement": "MIC", "setting": "[3]", "result": 8, "unit": "µg/mL"},
      {"measurement": "MIC", "setting": "Clostridium septicum", "result": "≤ 0.5", "unit": "µg/mL"},
      {"measurement": "MIC", "setting": "Eubacterium aerofaciens", "result": 16, "unit": "µg/mL"},
      {"measurement": "MIC", "setting": "[4]", "result": "≤ 0.5", "unit": "µg/mL"},
      {"measurement": "MIC", "setting": "Peptococcus prevoti", "result": "≤ 0.5", "unit": "µg/mL"},
      {"measurement": "MIC", "setting": "[5]", "result": "≤ 0.5", "unit": "µg/mL"},
      {"measurement": "MIC", "setting": "[6]", "result": "≤ 0.5", "unit": "µg/mL"},
      {"measurement": "MIC", "setting": "Bacteroides fragilis 111", "result": 8, "unit": "µg/mL"},
      {"measurement": "MIC", "setting": "[7]", "result": 4, "unit": "µg/mL"},
      {"measurement": "MIC", "setting": "[8]", "result": 8, "unit": "µg/mL"},
      {"measurement": "MIC", "setting": "[9]", "result": "> 128", "unit": "µg/mL"},
      {"measurement": "MIC", "setting": "[10]", "result": 2, "unit": "µg/mL"},
      {"measurement": "MIC", "setting": "Bacteroides vulgatis", "result": 4, "unit": "µg/mL"},
      {"measurement": "MIC", "setting": "Bacteroides corrodens", "result": 4, "unit": "µg/mL"},
      {"measurement": "MIC", "setting": "Fusobacterium symbiosum", "result": 4, "unit": "µg/mL"},
      {"measurement": "MIC", "setting": "[11]", "result": "≤ 0.5", "unit": "µg/mL"},
      {"measurement": "MIC", "setting": "[12]", "result": "< 50", "unit": "µg/mL"},
      {"measurement": "MIC", "setting": "[13]", "result": 50, "unit": "µg/mL"},
      {"measurement": "MIC", "setting": "Pseudomonas sp. (fish)", "result": 12.5, "unit": "µg/mL"},
      {"measurement": "Activity (color reaction)", "setting": "Spiroplasma citri; 0.01 ppm", "result": "Y,RO"},
      {"measurement": "Activity (color reaction)", "setting": "Spiroplasma citri; 0.05 ppm", "result": "--,R"},
      {"measurement": "Activity (color reaction)", "setting": "Spiroplasma citri; 0.1 ppm", "result": "R,R"},
      {"measurement": "Activity (color reaction)", "setting": "Spiroplasma citri; 1.0 ppm", "result": "R,R"}
    ]}
  ]
}
